Data as given in patent publication US20230357856A1, “METHODS AND COMPOSITIONS FOR PROGNOSING GLIOBLASTOMA OR BREAST CANCER” (The Johns Hopkins University, priority 2020, published 2023).
“Also recorded” adds a separate entry of the source.

Test system: metastatic MDA-MB-231 breast cancer cells
Assay: Microfluidic Assay for Quantification of Cell Invasion (MAqCI), migration of breast cancer cells
Format: cell-based
Conditions: 5 µM, 13 hours post administration, MDA-MB-231 cells, compared to vincristine (VC); FIG. 24

Compound: Fc1ccc([C@@H]2CCNC[C@H]2COc2ccc3c(c2)OCO3)cc1 [paroxetine]
- percentage of migratory cells in MAqCI: down to the levels of non-metastatic cells; also recorded: decreases the percent of migratory cells to the level of non-metastatic cells
